Common to all, as to assay: NCI tumour cell line growth inhibition, 48 h
In assay [1] the test system is A498 renal.
In assay [2] the test system is CAKI-1 renal.
The test system of assay [3] is COLO 205 colon.
The subject of assay [4] is K-562 leukemia.
Assay [5] concerns MALME-3M melanoma.
Assay [6] deals with MDA-MB-435.
The subject of assay [7] is SF-268 CNS.
Assay [8] has as its system SF-295 CNS.
The subject of assay [9] is SR leukemia.
Assay [10] has as its system UACC-257 melanoma.

Several values for one entry are separate records, joined by “and”; a condition that tells them apart may be missing. Identical values can stand only once.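 96-well plates; 48 h exposure; 5 concentrations. Endpoints by linear interpolation between flanking doses. Not reached: highest tested concentration assigned. GI50 is the concentration that inhibits growth by half. TGI is the concentration that stops growth completely.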 *1 amine or outer side, *2 acyl side, *3 side chain or, on linkers, in order; H or OH if unused. Where a SMILES comes first, the peptide text is derived from it. [ ]: non-standard residue; d: D form. X56 = CC[C@H](C)[C@H](OC(=O)[C@@H](C)[C@@H](CC)N[*:1])C(=O)[*:2]; X32 = C[C@H](N[*:1])C(=O)C(C)(C)C(=O)[*:2]; NMeY = CN[C@@H](Cc1ccc(O)cc1)C(=O)O; NMeL = CN[C@@H](CC(C)C)C(=O)O; NMeV = CN[C@H](C(=O)O)C(C)C

Consider `Fc1ccc2[nH]cc(SSc3c[nH]c4ccc(F)cc34)c2c1`, for which the GI50 is 3.61 µM in assay [1]; 3.52 µM in assay [2]; 3.83 µM in [3]; 3.89 µM in assay [4]; 14.6 µM in assay [5]; 4.62 µM in [6]. Moreover, the GI50 was 5.07 µM in [7], 3.04 µM in assay [8], 2.29 µM in assay [9] and 8.51 µM in [10]. Besides, the TGI in assay [1] was 14.4 µM; in [2], 21.7 µM; in assay [3], 17.4 µM; in [4] it was over 100 µM; in assay [5] it was 34 µM; in [6] it was 21.5 µM. In addition, the TGI in assay [7] was found to be 21.9 µM; in assay [8], 11.2 µM; in [9], 11.3 µM; in assay [10], 25.3 µM.

`COc1cc(/C=C2\C(=O)Nc3cccc(Cl)c32)cc(OC)c1OC`: the GI50 in [1] was over 100 µM; in [2], over 100 µM; in assay [3], over 100 µM; in assay [4], 29.2 µM; in assay [5] it was over 100 µM; in [6], over 100 µM. For the same molecule, the GI50 in assay [7] is over 100 µM; in assay [8], over 100 µM; in assay [9], 1.55 µM; in assay [10] it was over 100 µM. The TGI in assay [1], in assay [2], in assay [3], in [4], in assay [5] and in assay [6] was over 100 µM each time. In addition, the TGI in assay [7] is over 100 µM; in assay [8] it was over 100 µM; in assay [9], 25.1 µM; in [10] it was over 100 µM.

In the case of `C=C1C(=O)OC2CC(C)C3C=CC(=O)C3CC12` (centres undefined), the TGI in assay [1] came to 24.3 µM; in assay [2], 5.47 µM; in assay [3] it was 3.34 µM; in [4] it was 12.9 µM; in [5], 4.08 µM; in assay [6], 12.4 µM. Besides, the TGI in [7] stood at 7.4 µM; in [8], 28.9 µM; in [9], 4.53 µM; in assay [10], 4.9 µM.

Take `CCOC(=O)c1cc(C(=O)c2cc(OC)c(OC)c(OC)c2)n2ccccc12`: the GI50 in assay [1] was 0.0269 µM; in assay [2] it was 0.15 µM; in [3], 0.0588 µM; in [4], 0.0501 µM; in assay [5], 1.06 µM; in assay [6] it was under 0.0182 µM. Also, the GI50 in [7] was 1.12 µM; in [8] it was 0.0558 µM; in assay [9], 0.041 µM; in assay [10], 35.1 µM. The TGI in assay [1] is 9.55 µM; in assay [2], over 100 µM; in assay [3], 2.57 µM; in assay [4], over 100 µM; in assay [5], over 100 µM; in assay [6], 0.205 µM. The TGI in assay [7] is over 100 µM; in assay [8] it was 14.6 µM; in assay [9], over 100 µM; in assay [10], over 100 µM.

In the case of `C=CC1=C(C)C2=NC1=CC1=NC(=CC3=C(C)C4=C(O)C(C(=O)OC)C(=C5NC(=C2)C(C)C5CCC(=O)OC)C4=N3)C(CC)=C1C` (centres undefined), the TGI in [1], in [2], in [3], in assay [4], in assay [5] and in [6] was over 100 µM each time. Further, the TGI in assay [7], in [8], in assay [9] and in assay [10] was over 100 µM throughout.

On to `COc1ccccc1-c1cc(=O)c2ccc(OC)c(OC)c2o1`, for which the TGI in assay [1], in assay [2], in assay [3], in assay [4], in [5] and in [6] was over 100 µM in each case. Besides, the TGI in [7], in assay [8], in assay [9] and in assay [10] was over 100 µM each time.

For `NC1=Nc2cc(OCCCN3Cc4ccccc4C3)c(OCC3CC3)cc2C12CCCC2`, the GI50 in assay [1] was 4.48 µM; in assay [2], 2.31 µM; in assay [3], 1.59 µM; in assay [4], 0.74 µM; in assay [5], 1.73 µM; in [6] it was 1.8 µM. Besides, the GI50 in assay [7] was 3.79 µM; in [8], 1.64 µM; in assay [9], 1.94 µM; in [10], 2.2 µM. For the same molecule, the TGI is 18.1 µM in [1]; 11.3 µM in [2]; 3.29 µM in assay [3]; 4.08 µM in [4]; 3.26 µM in assay [5]; 3.66 µM in assay [6]. For the same molecule, the TGI in assay [7] was found to be 16.9 µM; in [8], 3.42 µM; in assay [9], 5.02 µM; in [10], 3.94 µM.

For `Cc1c(N=Cc2ccc(N(CCC#N)CCC#N)cc2)c(=O)n(-c2ccccc2)n1C`, the TGI in assay [1], in [2], in assay [3], in assay [4], in assay [5] and in assay [6] was over 100 µM in each case. Moreover, the TGI in assay [7] was over 100 µM; in assay [8] it was 71.6 µM; in [9] it was over 100 µM; in assay [10], over 100 µM.

For the molecule `CC(C)Nc1ncc2cc(Oc3ccc(F)cc3F)c(=O)n(C)c2n1`, the GI50 in assay [1] was 5.39 µM; in [2], over 25 µM; in [3] it was over 25 µM; in assay [4] it was over 25 µM; in [5] it was over 25 µM; in [6], over 25 µM. The GI50 in assay [7] was over 23.7 µM; in [8], over 25 µM; in assay [9], over 25 µM; in assay [10], over 25 µM. Further, the TGI in assay [1], in assay [2], in [3], in assay [4], in [5] and in assay [6] was over 25 µM throughout. Further, the TGI in assay [7], in assay [8], in assay [9] and in assay [10] was over 25 µM each time.

On to `Nc1nc(-c2cccc([N+](=O)[O-])c2)cc(-c2cc(-c3cccc([N+](=O)[O-])c3)nc(N)n2)n1`, for which the TGI in assay [1], in assay [2], in assay [3], in [4], in assay [5] and in assay [6] was over 100 µM throughout. Further, the TGI in assay [7], in assay [8], in assay [9] and in [10] was over 100 µM throughout.

Consider `COc1ccc(-c2csc(NC(=O)c3cc(O)c(O)c(O)c3)n2)cc1`, for which the GI50 is 9.61 µM in assay [1]; 2.61 µM in assay [2]; 10.8 µM in assay [3]; 4.5 µM in assay [4]; 11.1 µM in assay [5]; 8.69 µM in assay [6]. For the same molecule, the GI50 in assay [7] was 6.31 µM; in assay [8], 16.1 µM; in assay [9] it was 1.89 µM; in assay [10], 11.9 µM. Besides, the TGI in [1], in assay [2], in assay [3], in assay [4], in [5] and in [6] was over 33.3 µM throughout. The TGI in assay [7], in [8], in assay [9] and in assay [10] was over 33.3 µM each time.

Turning to `CC[C@H](C)[C@@H]1OC(=O)[C@@H](C)[C@@H](CC)NC(=O)[C@H](C)NC(=O)C(C)(C)C(=O)[C@H](C)NC(=O)[C@H](Cc2ccc(OC)cc2)N(C)C(=O)[C@H](C(C)C)N(C)C(=O)CNC(=O)[C@H](CC(C)C)N(C)C(=O)CNC1=O` (cyclo(A[X56]G[NMeL]G[NMeV][NMeY](Me)[X32])), the GI50 in assay [1] is 0.0398 µM; in [2], 0.0259 µM; in [3], 0.034 µM; in assay [4] it was under 0.0322 µM; in [5], 0.0304 µM; in [7], under 0.0161 µM. Also, the GI50 in [8] is 0.0102 µM; in assay [9], 0.063 µM; in assay [10] it was 0.0248 µM. The TGI is 1.38 µM and 0.197 µM in [1]; 0.122 µM and 0.0888 µM in assay [2]; over 33.3 µM in assay [3]; 0.634 µM in [4]; 2.47 µM in [6]; 0.657 µM and 0.0793 µM in assay [8]. For the same molecule, in assay [9], the TGI is 1.06 µM and 0.6 µM.

Turning to `O=C1NN(c2ccccc2)C(=O)/C1=C/c1ccc(Br)o1`, the GI50 was 23 µM in assay [1]; 5.8 µM in assay [2]; 3.75 µM in [3]; 14.1 µM in [4]; 6.65 µM in assay [6]; 14 µM in [7]. Further, the GI50 was 2.62 µM in assay [9] and 15.4 µM in assay [10]. In addition, the TGI was 53.9 µM in assay [1]; 20.8 µM in assay [2]; 11.2 µM in assay [3]; over 77.7 µM in assay [4]; 0.972 µM in assay [5]; 23.8 µM in [6]. For the same molecule, the TGI in assay [7] was 47.7 µM; in assay [8], 2.56 µM; in [9] it was 8.3 µM; in assay [10], 37.3 µM.

With `C[C@H](N)C(=O)N1C[C@H](CCCB(O)O)[C@](N)(C(=O)O)C1`, the GI50 in assay [1], in assay [2], in [3], in assay [4], in [5] and in assay [6] was over 100 µM in each case. For the same molecule, the GI50 in [7], in [8], in [9] and in assay [10] was over 100 µM in each case. Also, the TGI in assay [1], in assay [2], in assay [3], in assay [4], in [5] and in assay [6] was over 100 µM each time. Besides, the TGI in [7], in [8], in [9] and in assay [10] was over 100 µM in each case.

Regarding `NC1CCC(N[C@@H]2C[C@H]2c2ccccc2)CC1` (some centres undefined), the GI50 in assay [1] was 21.4 µM; in [2] it was 32 µM; in assay [3] it was 73.4 µM; in assay [4] it was 29.9 µM; in assay [5], 21.1 µM; in assay [6] it was 48.4 µM. The GI50 was over 100 µM in assay [7], over 100 µM in assay [8], 19.9 µM in assay [9] and over 100 µM in [10]. Further, the TGI in [1] is over 100 µM; in assay [2] it was over 100 µM; in [3], over 100 µM; in [4], over 100 µM; in assay [5] it was 84.7 µM; in [6], over 100 µM. The TGI in [7], in assay [8], in assay [9] and in [10] was over 100 µM throughout.

Regarding `O=C(Nc1ccccc1)Nc1cccc(Oc2nnc(Cl)c3ccccc23)c1`, the GI50 in assay [1] was 3.45 µM; in assay [2], 3.34 µM; in assay [3] it was 5.24 µM; in [4], 6.21 µM; in assay [5], 1.62 µM; in [6], 7.54 µM. Further, the GI50 in assay [7] is 2.89 µM; in assay [8], 2.07 µM; in assay [9], 1.93 µM; in assay [10], 3.96 µM. Moreover, the TGI in assay [1] was 13.1 µM; in [2], 14.3 µM; in [3], over 25 µM; in assay [4] it was over 25 µM; in assay [5] it was 5.93 µM; in assay [6], over 25 µM. Also, the TGI in assay [7] is 7.57 µM; in assay [8] it was 5.63 µM; in [9], 8.26 µM; in [10], over 25 µM.

Regarding `CC1(C)CC(Nc2ccc(Nc3ccccc3)cc2)CC(C)(C)N1`, the TGI in assay [1] is 55.3 µM; in assay [2], 53.1 µM; in assay [3], 32.5 µM; in assay [4], 39.2 µM; in assay [5] it was 35.8 µM; in [6] it was 33.6 µM. Moreover, the TGI in [7] is over 85.4 µM; in assay [8] it was over 95.3 µM; in [9] it was 50.2 µM; in [10], 23.9 µM.

Values taken from PubChem BioAssay (NCI).
